#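 Method: 48-hour compound exposure of cells in 96-well plates, five concentrations, linear interpolation of endpoints. GI50 is the concentration that inhibits growth by half.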 Calls of active or inactive are those of the source. Rule as the data show it: active = GI50 up to about 1.1 µM and inactive = higher. Starred links: 1 amine or outer side, 2 acyl side, 3 side chain; linkers in the order of their positions; H or OH if unused. Positions of bridges follow the written chain, without caps; N, C: chain ends. Non-standard residues stand in square brackets, D forms with d. Residues, ends and D or L forms follow the SMILES beside them. ξ: configuration not given here. X11 = CCC(C)C(N[*:1])C(O)CC(=O)O[C@H](C(=O)C(C)C(=O)[*:2])C(C)C; X10 = O=C([C@@H]1CC(O)CN1[*:1])[*:2]; NMeY = CN[C@@H](Cc1ccc(O)cc1)C(=O)O; ξNMeL = CNC(CC(C)C)C(=O)O; ξT = CC(O)C(N)C(=O)O
# How the values were obtained:
# Experiment in all cases: DTP human tumour cell line panel, 48 h
# A549 = tested on: A549
# UACC-257 = tested on: UACC-257
# UO-31 = tested on: UO-31
# HOP-62 = tested on: HOP-62
# NCI-H460 = tested on: NCI-H460
# OVCAR-8 = tested on: OVCAR-8
# OVCAR-4 = tested on: OVCAR-4
# OVCAR-5 = tested on: OVCAR-5
# HOP-92 = tested on: HOP-92
# UACC-62 = tested on: UACC-62
# SK-MEL-5 = tested on: SK-MEL-5
# TK-10 = tested on: TK-10
# SF-295 = tested on: SF-295
# SR = tested on: SR
# ACHN = tested on: ACHN
# CCRF-CEM = tested on: CCRF-CEM
# M14 = tested on: M14
# OVCAR-3 = tested on: OVCAR-3
# U-251 = tested on: U-251
# SK-MEL-2 = tested on: SK-MEL-2
SMILES,GI50 (A549),GI50 (UACC-257),GI50 (UO-31),GI50 (HOP-62),GI50 (NCI-H460),GI50 (OVCAR-8),GI50 (OVCAR-4),GI50 (OVCAR-5),GI50 (HOP-92),GI50 (UACC-62),GI50 (SK-MEL-5),GI50 (TK-10),GI50 (SF-295),GI50 (SR),GI50 (ACHN),GI50 (CCRF-CEM),GI50 (M14),GI50 (OVCAR-3),GI50 (U-251),GI50 (SK-MEL-2)
C[C@@]12CCC(=O)C=C1CC[C@H]1C2=CC[C@]2(C)C1CC[C@@]2(C)O (stereo not given in full),50.4 µM (inactive),69.2 µM (inactive),41.9 µM (inactive),67.8 µM (inactive),43.6 µM (inactive),> 100 µM (inactive),25.2 µM (inactive),> 100 µM (inactive),> 100 µM (inactive),37 µM (inactive),41.6 µM (inactive),> 100 µM (inactive),32.3 µM (inactive),34.8 µM (inactive),> 100 µM (inactive),40.4 µM (inactive),50.6 µM (inactive),34.1 µM (inactive),41.3 µM (inactive),38 µM (inactive)
COc1cc2c(cc1O)CC[C@@H]1C2CC[C@@]2(C)C1CC[C@@H]2O (stereo not given in full),4.48 µM (inactive),11.2 µM (inactive),6.65 µM (inactive),2.28 µM (inactive),1.96 µM (inactive),2 µM (inactive),29.6 µM (inactive),37 µM (inactive),10.7 µM (inactive),1.21 µM (inactive),1.35 µM (inactive),14 µM (inactive),3.16 µM (inactive),0.073 µM (active),9.84 µM (inactive),0.689 µM (active),0.91 µM (active),0.634 µM (active),1.16 µM (inactive),1.32 µM (inactive)
CCC(C)C1NC(=O)C(NC(=O)C(CC(C)C)N(C)C(=O)[C@@H]2CC(O)CN2)C(C)OC(=O)[C@H](Cc2ccc(OC)cc2)N(C)C(=O)[C@@H]2CCCN2C(=O)[C@H](CC(C)C)NC(=O)C(C)C(=O)[C@H](C(C)C)OC(=O)CC1O (stereo not given in full) (H-[X10][ξNMeL][ξT][X11]LP[NMeY](Me); ester 3-C),0.0228 µM (active),0.0152 µM (active),0.233 µM (active),0.00931 µM (active),0.00491 µM (active),0.0384 µM (active),0.00594 µM (active),0.0275 µM (active),0.0189 µM (active),< 0.001 µM (active),< 0.001 µM (active),0.164 µM (active),0.0113 µM (active),0.0148 µM (active),0.0382 µM (active),0.00233 µM (active),0.00419 µM (active),0.014 µM (active),0.00175 µM (active),0.00399 µM (active)
COc1ccc(-c2c3c([nH]c(=S)c2C#N)CC(C)(C)CC3=O)cc1,> 100 µM (inactive),> 100 µM (inactive),> 100 µM (inactive),> 100 µM (inactive),> 100 µM (inactive),> 100 µM (inactive),> 100 µM (inactive),> 100 µM (inactive),> 100 µM (inactive),> 100 µM (inactive),> 100 µM (inactive),> 100 µM (inactive),> 100 µM (inactive),> 100 µM (inactive),> 100 µM (inactive),56.2 µM (inactive),> 100 µM (inactive),> 100 µM (inactive),> 100 µM (inactive),> 100 µM (inactive)
COc1ccc(-c2cc(=O)c3c(OC)c(O)c(OC)cc3o2)cc1,42.5 µM (inactive),36.1 µM (inactive),30.7 µM (inactive),38.1 µM (inactive),32.8 µM (inactive),56.6 µM (inactive),40.4 µM (inactive),> 100 µM (inactive),20.9 µM (inactive),30.8 µM (inactive),23.4 µM (inactive),28.3 µM (inactive),30.8 µM (inactive),73.8 µM (inactive),30.5 µM (inactive),38.4 µM (inactive),58.3 µM (inactive),34 µM (inactive),63.1 µM (inactive),57.1 µM (inactive)
CC12CCC(O)CC1CCC1C2CCC2(C)C(C(=O)CC(O)C(F)(F)F)CCC12 (stereo not given),28.9 µM (inactive),21.6 µM (inactive),3.99 µM (inactive),27.7 µM (inactive),11.7 µM (inactive),55.7 µM (inactive),> 100 µM (inactive),26.4 µM (inactive),31.8 µM (inactive),52.2 µM (inactive),28.4 µM (inactive),53.7 µM (inactive),8.73 µM (inactive),0.289 µM (active),47.6 µM (inactive),25.6 µM (inactive),20.8 µM (inactive),28.6 µM (inactive),26.2 µM (inactive),32.1 µM (inactive)
Fc1cccc(CSc2ncnc3c2ncn3C2CCCS2)c1 (stereo not given),20.1 µM (inactive),15.6 µM (inactive),12.1 µM (inactive),17.6 µM (inactive),4.79 µM (inactive),20.8 µM (inactive),23.4 µM (inactive),37.3 µM (inactive),24.2 µM (inactive),13.1 µM (inactive),10.5 µM (inactive),30.6 µM (inactive),18.2 µM (inactive),3.94 µM (inactive),16.9 µM (inactive),8.49 µM (inactive),18.1 µM (inactive),17.4 µM (inactive),10.5 µM (inactive),19.6 µM (inactive)
COC(=O)C1CCC(=O)N1C(c1ccc2c(c1)OCO2)c1cc(OC)c(OC)c(OC)c1 (stereo not given),> 100 µM (inactive),> 100 µM (inactive),> 100 µM (inactive),> 100 µM (inactive),> 100 µM (inactive),> 100 µM (inactive),> 100 µM (inactive),> 100 µM (inactive),> 100 µM (inactive),> 100 µM (inactive),> 100 µM (inactive),> 100 µM (inactive),> 100 µM (inactive),> 100 µM (inactive),> 100 µM (inactive),> 100 µM (inactive),> 100 µM (inactive),> 100 µM (inactive),> 100 µM (inactive),> 100 µM (inactive)
COC1=C(C(c2cc(OC)c(OC)c(OC)c2)c2cc3c(cc2OC)OCO3)C(=O)OC1 (stereo not given),20.1 µM (inactive),> 34.4 µM (inactive),14.2 µM (inactive),24.8 µM (inactive),29.2 µM (inactive),27 µM (inactive),30.4 µM (inactive),34.4 µM (inactive),58.9 µM (inactive),10.6 µM (inactive),22.8 µM (inactive),> 44 µM (inactive),15.1 µM (inactive),11.1 µM (inactive),26.7 µM (inactive),21.4 µM (inactive),17.9 µM (inactive),22.3 µM (inactive),33.3 µM (inactive),45.2 µM (inactive)
CCCCCCNC(=O)C1=C(C)NC(C)=C(C(=O)NCCCCCC)C1,> 100 µM (inactive),> 100 µM (inactive),63.8 µM (inactive),> 100 µM (inactive),> 100 µM (inactive),> 100 µM (inactive),> 100 µM (inactive),> 100 µM (inactive),73.3 µM (inactive),> 100 µM (inactive),> 100 µM (inactive),> 100 µM (inactive),> 100 µM (inactive),83 µM (inactive),> 100 µM (inactive),70.3 µM (inactive),> 100 µM (inactive),> 100 µM (inactive),> 100 µM (inactive),> 100 µM (inactive)
C[C@]12CC[C@H](O[C@@H]3O[C@H](CO[C@@H]4O[C@H](CO)[C@@H](O)[C@H](O)[C@H]4O)[C@@H](O)[C@H](O)[C@H]3O)C[C@@H]1CC[C@@H]1[C@@H]2CC[C@]2(C)[C@@H](C3=CC(=O)OC3)CC[C@]12O [UZARIN],5.33 µM (inactive),31.3 µM (inactive),25.1 µM (inactive),13.7 µM (inactive),7.29 µM (inactive),31.8 µM (inactive),17.3 µM (inactive),27.4 µM (inactive),29.4 µM (inactive),33.7 µM (inactive),4.62 µM (inactive),18.8 µM (inactive),17.3 µM (inactive),6.25 µM (inactive),8.57 µM (inactive),4.07 µM (inactive),24.8 µM (inactive),23.3 µM (inactive),39.7 µM (inactive),36.4 µM (inactive)
"O=C1/C(=C/c2ccccc2)CCC/C1=C\c1ccccc1 [2,6-DIBENZYLIDENECYCLOHEXANONE]",19.6 µM (inactive),17 µM (inactive),18.2 µM (inactive),21.7 µM (inactive),14.9 µM (inactive),8.26 µM (inactive),14.9 µM (inactive),17.3 µM (inactive),17.5 µM (inactive),13.2 µM (inactive),13.2 µM (inactive),17.8 µM (inactive),10.4 µM (inactive),9.71 µM (inactive),15.7 µM (inactive),4.12 µM (inactive),6.44 µM (inactive),10.4 µM (inactive),5.82 µM (inactive),16.7 µM (inactive)
O=C(c1cccs1)N(C(=S)N1CCN(c2ccccc2)CC1)c1ccccc1,> 100 µM (inactive),> 100 µM (inactive),> 100 µM (inactive),> 100 µM (inactive),> 100 µM (inactive),> 100 µM (inactive),> 100 µM (inactive),> 100 µM (inactive),> 100 µM (inactive),> 100 µM (inactive),> 100 µM (inactive),> 100 µM (inactive),> 100 µM (inactive),> 100 µM (inactive),> 100 µM (inactive),> 100 µM (inactive),> 100 µM (inactive),> 100 µM (inactive),> 100 µM (inactive),> 100 µM (inactive)

# — ChEMBL document CHEMBL1201862, “PubChem BioAssay data set” (2004)
